For orientation: IC50 means the midpoint of a concentration-inhibition curve. Lower therefore signals inhibition by little substance.

Among the data in ChEMBL document CHEMBL5726922, “Chemokine CXCR1 and CXCR2 receptor antagonist compounds, and use thereof in the treatment of chemokine-mediated pathologies” (2019) are IC50 values, retold here.

Assay [1] has as its target T1, C-X-C chemokine receptor type 2 (Homo sapiens, UniProt P25025).
T1 sequence (P25025 whole entry): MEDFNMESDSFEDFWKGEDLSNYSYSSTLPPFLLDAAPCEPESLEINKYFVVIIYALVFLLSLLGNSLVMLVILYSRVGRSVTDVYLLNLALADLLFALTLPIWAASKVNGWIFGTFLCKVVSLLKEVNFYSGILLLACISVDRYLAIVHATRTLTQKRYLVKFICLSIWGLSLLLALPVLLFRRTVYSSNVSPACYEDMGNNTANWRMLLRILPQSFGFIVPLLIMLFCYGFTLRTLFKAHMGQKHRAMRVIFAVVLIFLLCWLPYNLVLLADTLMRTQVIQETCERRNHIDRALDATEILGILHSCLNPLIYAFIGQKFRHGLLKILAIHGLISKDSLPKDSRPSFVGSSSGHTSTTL
The assay is described as follows: (§1) J. Immunol. 170: 2904-2911).To evaluate the direct interaction of the CXCR2 or CXCR1 receptor with β-arrestin 2, a test of β-arrestin 2 recruitment for CXCR2 or CXCR1 based on complementation of the β-galactosidase enzyme (Olson K. R., Eglen R. M., Beta-galactosidase complementation: a cell-based luminescent assay platform for drug discovery. Assay Drug Dev. Technol. 2007 February; 5(1); 137-44), as established by DiscoveRx Corporation was used. Stimulation of these two cell lines with CXCL8 (10 nM) induces the recruitment of β-arrestin 2, as indicated by a significant increase in the induction factor. All the CXCR2 antagonists are tested in a dose-dependent manner and the concentration corresponding to 50% inhibition of the response is determined (IC50=concentration of half-inhibition).β-Arrestin Recruitment Test: “PathHunter HEK293-CXCR2” or “U2OS hCXCR1 β-arrestin” cells (DiscoveRx Corporation) were seeded overnight at 10 000 cells/well (384-well format) in 20 μl of Opti MEM I medium. Preincubation with the antagonist or the vehicle for 30 minutes at 37° C. and 5% CO2 was followed by 60 minutes of stimulation with CXCL8 at 37° C. and 5% CO2. The cells were then placed at room temperature for 30 minutes. The PathHunter detection reagent (DiscoveRx Corporation) was added. […]. On the technique in general: Activated receptors often draw arrestin, which recruitment assays turn into a signal.

Assay [2] concerns the target T2, C-X-C chemokine receptor type 1 (Homo sapiens, UniProt P25024).
T2 sequence (P25024 whole entry): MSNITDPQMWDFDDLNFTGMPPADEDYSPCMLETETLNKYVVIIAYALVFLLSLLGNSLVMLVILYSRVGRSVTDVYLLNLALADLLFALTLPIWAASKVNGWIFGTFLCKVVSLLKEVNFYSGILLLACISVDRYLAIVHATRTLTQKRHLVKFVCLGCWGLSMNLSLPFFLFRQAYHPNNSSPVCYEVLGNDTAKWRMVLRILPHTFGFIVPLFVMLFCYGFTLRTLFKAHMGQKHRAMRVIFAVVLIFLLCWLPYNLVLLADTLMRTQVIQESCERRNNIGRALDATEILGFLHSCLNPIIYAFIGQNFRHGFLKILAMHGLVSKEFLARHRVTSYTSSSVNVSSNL
Described as §1.

For `CC[C@@H](Nc1c(Nc2ccc(Cl)c(S(C)(=O)=NCCN(C)C)c2O)c(=O)c1=O)c1ccc(C)o1` (some centres not stated), the half-inhibitory concentration (IC50) in assay [1] is more than 20 nM; in assay [2] it was more than 200 nM.
